Data reported in patent publication US6610289B2, “Mutated herpes simplex virus type 1 thymidine kinases and uses thereof” (The Board of Trustees of the University of Arkansas, priority 1998, dated 2003).

Key:
HCT-116 cells [1] = assay: Cell cycle analysis of GCV treated cells (propidium iodide flow cytometry); format: cell-based, human; conditions: +GCV 25 μM, 24 hours, HCT-116 expressing the TK
Description: Parental HCT-116 cells and each HSV-1 TK expressing cell line were grown to 60% confluency in 25 cm^2 flasks and treated for 24 hours minus (−GCV, panels A, C, E and G) or plus (+GCV, panels B, D, F and H) 25 μM GCV. Cells were fixed in 70% ethanol overnight, and later incubated with RNAase (0.1%) and propidium iodide (1 mg/ml) for […] on ice. Flow cytometry measuring propidium iodide fluorescence was done with a Becton-Dickinson FACScalibur instrument using MODFIT computer software. FIGS. 6A and 6B: HCT-116 cells; FIGS. 6C and 6D: wild-type HSV-1 TK cells; FIGS. 6E and 6F: Asn-125TK cells, FIGS. 6G and 6H: Glu-125TK cells.
Parental HCT-116 cells and each HSV-1 TK expressing cell line were grown to 60% confluency in 25 cm^2 flasks and treated for 24 hours plus or minus 25 μM GCV. Following drug incubation, cells were removed by trypsin and total cell numbers determined. Following two phosphate buffered saline rinsing and centrifugation cycles, the cell pellets were resuspended in 1 ml of 70% ethanol and stored at 4° C. until further analysis. Just prior to cell cycle analysis, the ethanol was removed and cell pellets were resuspended in phosphate-buffered saline plus RNAase (0.1%) and propidium iodide (1 mg/ml) for 30 minutes on ice. Flow cytometry measuring propidium iodide fluorescence was done with a Becton-Dickinson FACScalibur instrument. Cell cycle distribution of the cells were determined using MODFIT computer software
GCV has also been previously reported to induce S and G2-M phase cell cycle arrest in HSV-1 TK expressing glioma and melanoma cell lines (36-38). Therefore, the effect of 24 hr GCV treatment on the cell cycling of parental and the three HSV-1 TK-expressing cell lines was examined by flow cytometry of propidium iodide stained cells. As shown in FIGS. 6A and 6B and Table 5, GCV treatment of HCT-116 parental, non-HSV-1 TK-expressing cells had little effect on the percentage of cells in each phase of the cell cycle as compared with untreated cells. In the wild-type and Asn-125TK-expressing cell lines, GCV treatment (FIGS. 6D and 6F) led to an increase in the proportion of cells in the S-phase, and undetectable percentages in G2-M phase when compared to untreated cultures (FIGS. 6C and 6E). For the Glu-125TK-expressing cells, over 50% of the GCV treated cells were in S-phase and less than 3% were in G2-M (FIG. 6H).

NIH3T3 cells = assay: MTT cell viability, sensitivity to GCV killing, NIH3T3 cell lines expressing HSV-1 TKs; format: cell-based, murine; conditions: NIH3T3, GCV 0-5 μM, 4 days, FIG. 3A
Description: Cells were plated in triplicate and exposed to 0, 0.05, 0.5 or 5 μM GCV for four days. Cell viabilities were determined using MTT dye. […] FIG. 3A: NIH3T3 cell lines, FIG. 3B: HCT-116 cell lines; parental cells (noTK, dark bands); Asp125TK (Asp-#, brick band); Glu-125TK (Glu-#, cross-hatch bands); Asn-125TK (Asn-#, gray bands); wild-type HSV-1 TK (WT-#, striped bands).
A Moloney murine leukemia virus derived plasmid for the expression of HSV-TK, termed pLENTK, has been previously constructed (24). A unique BspEI-MluI restriction fragment within the HSV-TK sequence of pLENTK contains the Gln-125 mutation site. This fragment was removed from wild-type plasmid and replaced with the analogous fragments encoding each mutant. […] Along with wild-type HSV-1 TK plasmid, each mutant-TK plasmid was transfected individually into the murine fibroblast cell line, NIH 3T3, and the human colon tumor cell line, HCT-116, using lipofectin reagent (GIBCO/BRL) (2 μg plasmid, 14 μl lipid per 1×10^6 cells). Cells were maintained in RPMI 1640 media and selected with G418 (200 μg/ml for 2 weeks) as previously described (24). At least eight individual G418 resistant cell clones were picked and grown up for further characterization. Each clone was screened initially for growth inhibition by 25 μM GCV. Those clones that were sensitive were further analyzed for HSV-TK protein expression by Western blot analysis with a polyclonal, rabbit anti-HSV-TK antibody (a gift from Dr. Margaret Black). […] After 4 days, MTT ([…]) was added for 1.5 hours, followed by DMSO solubilization of the cells and absorbance reading at 540 nm (25).
cDNA for each mutant was incorporated into a Moloney murine leukemia virus plasmid (24). […] Following drug selection in G418, individual cell clones were evaluated for sensitivity to GCV and relative levels of HSV-1 TK expression. Using an HSV-1 TK antibody and extracts normalized by protein and cell number, the relative expression levels of HSV-1 TK in each cell clone were determined.

HCT-116 cells [2] = assay: DAPI-staining of apoptotic cells; format: cell-based, human; conditions: 25 μM GCV, 36 or 84 hrs, FIG. 7
Description: The HCT-116 cells expressing wild-type HSV-1 TK (FIG. 7A), Asn-125TK (FIG. 7B), or Glu-125TK (FIG. 7C) were grown on chamber slides and incubated with 25 μM GCV for 36 or 84 hours. Control cultures for each cell line without GCV addition (top row) were evaluated after 84 hours. At the indicated time point, cells were fixed in methanol, stained with DAPI, and nuclei visualized by fluorescent microscopy. Each image is magnified 40×.
Parental HCT-116 cells and each HSV-1 TK expressing cell line were plated (5×10^4 cells/well) in 8-well plastic chamber slides (Lab-Tek) and treated plus or minus 25 mM GCV for 36 or 84 hrs. At either time point, cells were washed with phosphate-buffered saline followed by staining in 1 μg/ml DAPI (4′,6′-diamidine-2′-phenylindoledihydrochloride) in 100% methanol at 37° C. for 10 min. After rinsing, the stained cells were visualized with a Zeiss flourescent microscope at 40× magnification with a DAPI-specific filter.

| Substance | Cell cycle phase G0/G1 (HCT-116 cells [1]) | Cell cycle phase S (HCT-116 cells [1]) | Dose dependent cell killing by GCV (cell viability, MTT) (NIH3T3 cells) | Nuclear morphology of DAPI-stained nuclei after GCV (HCT-116 cells [2]) | Cell cycle phase G2/M (HCT-116 cells [1]) | Cell cycle phase G2/M (HCT-116 cells [1]; listed as WTGln-125TK) |
| --- | --- | --- | --- | --- | --- | --- |
| Asn-125 | 70.0% | 30.0% | proportionally more cell killing | progressive increases in condensed and fragmented nuclei characteristic of apoptosis | – | – |
| Gln-125 (WT): wild-type herpes simplex virus type 1 thymidine kinase with glutamine at position 125, parent enzyme [reference compound] | 60.1% | 39.9% | proportionally more cell killing | progressive increases in condensed and fragmented nuclei characteristic of apoptosis | undetectable | 0% |
| Glu-125 | 39.0% | – | minimal cell killing | fewer swelled nuclei and little evidence of apoptotic nuclei | – | – |
